# Laboratory results: article PMC12736120, “First-in-Human Phase I Clinical Trial of SLC-391, a Novel and Selective AXL Inhibitor, in Patients with Advanced Solid Tumours” (Pharmaceuticals, 2025)
# Assay: Phase I safety and tolerability (DLTs, adverse events, laboratory, ECG)
# Type: in vivo
# Conditions: for dose-limiting toxicity (DLT): one subject; for Any treatment-related adverse event (TRAE) / TRAE: Decreased appetite / TRAE: Diarrhoea / TRAE: Dysgeusia / TRAE: Fatigue / TRAE: Gastrointestinal disorders / TRAE: General disorders and administration site conditions / TRAE: Metabolism and nutrition disorders / TRAE: Nausea / TRAE: Nervous system disorders / TRAE: Vomiting: Definitely related; for Any treatment-emergent adverse event (TEAE) / TEAE: Abdominal distension / TEAE: Abdominal pain / TEAE: Back pain / TEAE: Blood and lymphatic system disorders / TEAE: Chills / TEAE: Constipation / TEAE: Cough / TEAE: Decreased appetite / TEAE: Diarrhoea / TEAE: Dizziness / TEAE: Dysgeusia / TEAE: Dyspnoea / TEAE: Fatigue / TEAE: Gastrointestinal disorders / TEAE: General disorders and administration site conditions / TEAE: Haematuria / TEAE: Headache / TEAE: Infections and infestations / TEAE: Investigations / TEAE: Metabolism and nutrition disorders / TEAE: Musculoskeletal and connective tissue disorders / TEAE: Nausea / TEAE: Nervous system disorders / TEAE: Oedema peripheral / TEAE: Psychiatric disorders / TEAE: Pyrexia / TEAE: Renal and urinary disorders / TEAE: Respiratory, thoracic, and mediastinal disorders / TEAE: Skin and subcutaneous tissue disorders / TEAE: Vomiting / TEAE: Weight decreased: Grade 1
# Experimental: This study employed a standard 3 + 3 dose escalation design with a starting dose of 25 mg QD. […] Dose escalation decisions took into account all available data from evaluable subjects as well as PK and the safety profile of prior dose cohorts. […] There was a minimum 5-day stagger between dosing of the first and second subjects in each dose cohort. Dose escalation decisions were made by a data review committee (DRC) composed of, at minimum, the medical monitor, at least one principal investigator, and a sponsor representative, per the study DRC Plan. Dose escalation could continue until 2 or more subjects in the same dose cohort experienced a dose-limiting toxicity (DLT). DLTs were defined as Grade 3 or 4 adverse drug reactions (ADRs), with grades as defined in the National Cancer Institute Common Toxicity Criteria for Adverse Events (NCI-CTCAE) version 5.0. […] The MTD was defined as the highest dose at which no more than 1 of 6 subjects experienced a DLT during cycle 1 of the study drug. The MTD would have been exceeded if 2 or more subjects in a dose cohort of up to 6 subjects experienced a DLT. Subjects could continue treatment until disease progression, unacceptable toxicity, death, withdrawal of consent, or loss to follow-up.
# Before enrolment in the study, all patients received a detailed medical history and physical examination. Clinical laboratory evaluations included clinical chemistry, complete blood count, urinalysis, coagulation factors, and a lipid panel. Other safety assessments included vital signs, physical examination, electrocardiogram, and echocardiogram with multigated acquisition (ECHO/MUGA). Safety assessments were performed on days 1, 8, 15, and 21 of cycle 1, and on day 1 of cycles 2 to 6.
smiles,measurement,setting,value
"Nc1ncc(-c2cnn(C3CCNCC3)c2)cc1-c1nnc(CC2CC2)o1 [SLC-391, 3-(5-[cyclopropylmethyl]-1,3,4-oxadiazol-2-yl)-5-(1-[piperidin-4-yl]-1H-pyrazol-4-yl)-pyridin-2-amine]",subjects with SAEs,110 mg BID (1/3),33.3%
same,TEAEs leading to drug withdrawal or study discontinuation,150 mg BID,16.7%
same,subjects reporting Grade 3 TEAEs,150 mg BID,50.0%
same,DLTs and SAEs,150 mg BID (N = 6),no DLTs or SAEs
same,subjects reporting constipation,150 mg BID (N = 6),66.7%
same,subjects reporting diarrhoea,150 mg BID (N = 6),66.7%
same,subjects reporting dyspnoea,150 mg BID (N = 6),50.0%
same,subjects reporting fatigue,150 mg BID (N = 6),83.3%
same,subjects reporting nausea,150 mg BID (N = 6),83.3%
same,subjects with SAEs,150 mg QD (3/6),50%
same,subjects with SAEs,175 mg QD (1/2),50%
same,dose-limiting toxicity (DLT),"175 mg QD (N = 2), SUSAR",Grade 3 haematochezia
same,TEAEs leading to drug withdrawal or study discontinuation,200 mg BID,66.7%
same,subjects reporting Grade 3 TEAEs,200 mg BID,66.7%
same,subjects reporting constipation,200 mg BID (N = 3),66.7%
same,subjects reporting decreased appetite,200 mg BID (N = 3),66.7%
same,subjects reporting diarrhoea,200 mg BID (N = 3),66.7%
same,subjects reporting dysgeusia,200 mg BID (N = 3),66.7%
same,subjects reporting fatigue,200 mg BID (N = 3),66.7%
same,subjects reporting headache,200 mg BID (N = 3),66.7%
same,subjects reporting nausea,200 mg BID (N = 3),100.0%
same,dose-limiting toxicity (DLT),200 mg BID,Grade 3 thrombocytopenia associated with Grade 1 haematuria
same,subjects with interrupted dosing who continued at a reduced dose,2/9 subjects,22.2%
same,maximum tolerated dose (MTD),"25-175 mg QD, 75-200 mg BID, 21-day cycles",not reached
same,"SAEs, subjects",BID cohorts,6.7%
same,TEAEs leading to treatment interruption or missed dose,BID cohorts,40.0%
same,"TEAEs leading to treatment or study discontinuation, subjects",BID cohorts,20.0%
same,subjects with Grade 3 TEAEs,BID cohorts,40.0%
same,subjects with TRAEs,BID cohorts,86.7%
same,subjects with at least one TEAE,BID cohorts,100.0%
same,Any treatment-related adverse event (TRAE),Overall BID (N = 15),5 (33.3%) n (%)
same,TRAE: Decreased appetite,Overall BID (N = 15),2 (13.3%) n (%)
same,TRAE: Diarrhoea,Overall BID (N = 15),2 (13.3%) n (%)
same,TRAE: Dysgeusia,Overall BID (N = 15),1 (6.7%) n (%)
same,TRAE: Fatigue,Overall BID (N = 15),1 (6.7%) n (%)
same,TRAE: Gastrointestinal disorders,Overall BID (N = 15),5 (33.3%) n (%)
same,TRAE: General disorders and administration site conditions,Overall BID (N = 15),1 (6.7%) n (%)
same,TRAE: Metabolism and nutrition disorders,Overall BID (N = 15),2 (13.3%) n (%)
same,TRAE: Nausea,Overall BID (N = 15),4 (26.7%) n (%)
same,TRAE: Nervous system disorders,Overall BID (N = 15),1 (6.7%) n (%)
same,TRAE: Vomiting,Overall BID (N = 15),3 (20.0%) n (%)
same,Any treatment-related adverse event (TRAE),Overall QD (N = 20),7 (35.0%) n (%)
same,TRAE: Decreased appetite,Overall QD (N = 20),2 (10.0%) n (%)
same,TRAE: Diarrhoea,Overall QD (N = 20),5 (25.0%) n (%)
same,TRAE: Dysgeusia,Overall QD (N = 20),1 (5.0%) n (%)
same,TRAE: Fatigue,Overall QD (N = 20),3 (15.0%) n (%)
same,TRAE: Gastrointestinal disorders,Overall QD (N = 20),6 (30.0%) n (%)
same,TRAE: General disorders and administration site conditions,Overall QD (N = 20),3 (15.0%) n (%)
same,TRAE: Metabolism and nutrition disorders,Overall QD (N = 20),2 (10.0%) n (%)
same,TRAE: Nausea,Overall QD (N = 20),4 (20.0%) n (%)
same,TRAE: Nervous system disorders,Overall QD (N = 20),1 (5.0%) n (%)
same,TRAE: Vomiting,Overall QD (N = 20),5 (25.0%) n (%)
same,Any treatment-related adverse event (TRAE),Overall Study (N = 35),12 (34.3%) n (%)
same,TRAE: Decreased appetite,Overall Study (N = 35),4 (11.4%) n (%)
same,TRAE: Diarrhoea,Overall Study (N = 35),7 (20.0%) n (%)
same,TRAE: Dysgeusia,Overall Study (N = 35),2 (5.7%) n (%)
same,TRAE: Fatigue,Overall Study (N = 35),4 (11.4%) n (%)
same,TRAE: Gastrointestinal disorders,Overall Study (N = 35),11 (31.4%) n (%)
same,TRAE: General disorders and administration site conditions,Overall Study (N = 35),4 (11.4%) n (%)
same,TRAE: Metabolism and nutrition disorders,Overall Study (N = 35),4 (11.4%) n (%)
same,TRAE: Nausea,Overall Study (N = 35),8 (22.9%) n (%)
same,TRAE: Nervous system disorders,Overall Study (N = 35),2 (5.7%) n (%)
same,TRAE: Vomiting,Overall Study (N = 35),8 (22.9%) n (%)
same,Any treatment-emergent adverse event (TEAE),Overall BID (N = 15),2 (13.3) n (%)
same,TEAE: Abdominal distension,Overall BID (N = 15),2 (13.3) n (%)
same,TEAE: Abdominal pain,Overall BID (N = 15),0 n (%)
same,TEAE: Back pain,Overall BID (N = 15),0 n (%)
same,TEAE: Blood and lymphatic system disorders,Overall BID (N = 15),1 (6.7) n (%)
same,TEAE: Chills,Overall BID (N = 15),4 (26.7) n (%)
same,TEAE: Constipation,Overall BID (N = 15),5 (33.3) n (%)
same,TEAE: Cough,Overall BID (N = 15),2 (13.3) n (%)
same,TEAE: Decreased appetite,Overall BID (N = 15),1 (6.7) n (%)
same,TEAE: Diarrhoea,Overall BID (N = 15),6 (40.0) n (%)
same,TEAE: Dizziness,Overall BID (N = 15),0 n (%)
same,TEAE: Dysgeusia,Overall BID (N = 15),0 n (%)
same,TEAE: Dyspnoea,Overall BID (N = 15),0 n (%)
same,TEAE: Fatigue,Overall BID (N = 15),4 (26.7) n (%)
same,TEAE: Gastrointestinal disorders,Overall BID (N = 15),7 (46.7) n (%)
same,TEAE: General disorders and administration site conditions,Overall BID (N = 15),5 (33.3) n (%)
same,TEAE: Haematuria,Overall BID (N = 15),3 (20.0) n (%)
same,TEAE: Headache,Overall BID (N = 15),3 (20.0) n (%)
same,TEAE: Infections and infestations,Overall BID (N = 15),1 (6.7) n (%)
same,TEAE: Investigations,Overall BID (N = 15),2 (13.3) n (%)
same,TEAE: Metabolism and nutrition disorders,Overall BID (N = 15),0 n (%)
same,TEAE: Musculoskeletal and connective tissue disorders,Overall BID (N = 15),2 (13.3) n (%)
same,TEAE: Nausea,Overall BID (N = 15),7 (46.7) n (%)
same,TEAE: Nervous system disorders,Overall BID (N = 15),3 (20.0) n (%)
same,TEAE: Oedema peripheral,Overall BID (N = 15),1 (6.7) n (%)
same,TEAE: Psychiatric disorders,Overall BID (N = 15),1 (6.7) n (%)
same,TEAE: Pyrexia,Overall BID (N = 15),2 (13.3) n (%)
same,TEAE: Renal and urinary disorders,Overall BID (N = 15),3 (20.0) n (%)
same,"TEAE: Respiratory, thoracic, and mediastinal disorders",Overall BID (N = 15),2 (13.3) n (%)
same,TEAE: Skin and subcutaneous tissue disorders,Overall BID (N = 15),2 (13.3) n (%)
same,TEAE: Vomiting,Overall BID (N = 15),5 (33.3) n (%)
same,TEAE: Weight decreased,Overall BID (N = 15),2 (13.3) n (%)
same,Any treatment-emergent adverse event (TEAE),Overall QD (N = 20),1 (5.0) n (%)
same,TEAE: Abdominal distension,Overall QD (N = 20),2 (10.0) n (%)
same,TEAE: Abdominal pain,Overall QD (N = 20),4 (20.0) n (%)
same,TEAE: Back pain,Overall QD (N = 20),1 (5.0) n (%)
same,TEAE: Blood and lymphatic system disorders,Overall QD (N = 20),0 n (%)
same,TEAE: Chills,Overall QD (N = 20),2 (10.0) n (%)
same,TEAE: Constipation,Overall QD (N = 20),5 (25.0) n (%)
same,TEAE: Cough,Overall QD (N = 20),4 (20.0) n (%)
same,TEAE: Decreased appetite,Overall QD (N = 20),6 (30.0) n (%)
same,TEAE: Diarrhoea,Overall QD (N = 20),8 (40.0) n (%)
same,TEAE: Dizziness,Overall QD (N = 20),4 (20.0) n (%)
same,TEAE: Dysgeusia,Overall QD (N = 20),1 (5.0) n (%)
same,TEAE: Dyspnoea,Overall QD (N = 20),2 (10.0) n (%)
same,TEAE: Fatigue,Overall QD (N = 20),6 (30.0) n (%)
same,TEAE: Gastrointestinal disorders,Overall QD (N = 20),8 (40.0) n (%)
same,TEAE: General disorders and administration site conditions,Overall QD (N = 20),7 (35.0) n (%)
same,TEAE: Haematuria,Overall QD (N = 20),1 (5.0) n (%)
same,TEAE: Headache,Overall QD (N = 20),2 (10.0) n (%)
same,TEAE: Infections and infestations,Overall QD (N = 20),0 n (%)
same,TEAE: Investigations,Overall QD (N = 20),5 (25.0) n (%)
same,TEAE: Metabolism and nutrition disorders,Overall QD (N = 20),5 (25.0) n (%)
same,TEAE: Musculoskeletal and connective tissue disorders,Overall QD (N = 20),5 (25.0) n (%)
same,TEAE: Nausea,Overall QD (N = 20),8 (40.0) n (%)
same,TEAE: Nervous system disorders,Overall QD (N = 20),8 (40.0) n (%)
same,TEAE: Oedema peripheral,Overall QD (N = 20),2 (10.0) n (%)
same,TEAE: Psychiatric disorders,Overall QD (N = 20),2 (10.0) n (%)
same,TEAE: Pyrexia,Overall QD (N = 20),2 (10.0) n (%)
same,TEAE: Renal and urinary disorders,Overall QD (N = 20),0 n (%)
same,"TEAE: Respiratory, thoracic, and mediastinal disorders",Overall QD (N = 20),3 (15.0) n (%)
same,TEAE: Skin and subcutaneous tissue disorders,Overall QD (N = 20),4 (20.0) n (%)
same,TEAE: Vomiting,Overall QD (N = 20),8 (40.0) n (%)
same,TEAE: Weight decreased,Overall QD (N = 20),4 (20.0) n (%)
same,Any treatment-emergent adverse event (TEAE),Overall Study (N = 35),3 (8.6) n (%)
